Read-outs that look alike come from different tables or passages of the source.
What was measured:
AR [1] = molecular target: T1, AR (Homo sapiens, UniProt P10275, T878A); format: cell-based; conditions: LNCaP; for effect on DHT-induced luciferase activity: pARR3, cotreatment with DHT; for effect on E2-induced luciferase activity: pARR3, cotreatment with E2
T1 construct: AR protein levels in whole cell lysates were determined by Western blot analysis; endogenous in cells; host or cells: LNCaP
T1 sequence (P10275 1-920 T878A): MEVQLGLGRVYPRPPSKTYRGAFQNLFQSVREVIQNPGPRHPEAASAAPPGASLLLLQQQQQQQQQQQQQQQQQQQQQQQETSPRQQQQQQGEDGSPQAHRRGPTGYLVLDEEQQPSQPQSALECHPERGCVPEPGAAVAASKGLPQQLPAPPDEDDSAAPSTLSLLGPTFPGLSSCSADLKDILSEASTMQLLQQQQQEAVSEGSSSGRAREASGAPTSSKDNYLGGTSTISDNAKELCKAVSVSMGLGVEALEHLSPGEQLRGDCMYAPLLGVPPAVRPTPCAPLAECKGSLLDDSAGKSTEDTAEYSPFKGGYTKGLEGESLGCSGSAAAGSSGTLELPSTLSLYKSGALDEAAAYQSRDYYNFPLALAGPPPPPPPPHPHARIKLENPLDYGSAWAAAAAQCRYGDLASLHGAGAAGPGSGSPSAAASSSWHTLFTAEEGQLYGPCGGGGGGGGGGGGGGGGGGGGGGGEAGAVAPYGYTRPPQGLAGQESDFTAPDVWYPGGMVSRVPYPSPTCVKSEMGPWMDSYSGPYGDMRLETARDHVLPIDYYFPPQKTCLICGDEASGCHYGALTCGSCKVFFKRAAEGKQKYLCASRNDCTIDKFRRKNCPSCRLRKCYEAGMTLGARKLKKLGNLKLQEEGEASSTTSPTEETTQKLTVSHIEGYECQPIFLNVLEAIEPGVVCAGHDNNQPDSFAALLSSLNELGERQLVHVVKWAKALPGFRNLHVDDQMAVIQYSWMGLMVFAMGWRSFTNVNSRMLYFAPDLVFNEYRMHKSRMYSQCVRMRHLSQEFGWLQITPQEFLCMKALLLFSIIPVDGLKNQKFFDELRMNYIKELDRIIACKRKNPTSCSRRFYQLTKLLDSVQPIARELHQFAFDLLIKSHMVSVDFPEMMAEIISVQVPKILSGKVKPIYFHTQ
Procedure: After 24 h, cells were transfected using Lipofectamine and Plus reagents (Invitrogen) according to manufacturer's instructions. LNCaP and ZR-75 cells were transfected with 500 ng/well of either reporter plasmid, and 250 ng/well of pcDNA3.1-β-gal (Invitrogen) as the internal control. In addition, ZR-75 cells were transfected with 500 ng hAR. Twenty-four hours after treatment, cells were harvested by scraping with 200 μL/well of reporter lysis buffer. Lysates were centrifuged at 40,000 g and luciferase and β-galactosidase activity was assayed with 30 μL of the supernatant extract per sample using a Lumicount luminometer (PerkinElmer, Boston, Mass.). Luciferase activity was normalized to β-galactosidase activity for each transfection well.
Next, LNCaP cells were transfected with pARR3 construct that contained three tandem (3) copies of the probasin androgen response element. The transfected cells were treated with hormone or AhR agonist alone or in combination and luciferase activity was determined as described in the above examples.

AR [2] = experiment: AR protein levels in LNCaP cells by Western blot; format: cell-based, human; conditions: 6 h; for AR protein levels, compound alone: DHT 10 nM, E2 10 nM, TCDD 10 nM, 6-MCDF 2 μM, HPTE 10 μM
Procedure: Cells were harvested 6 h after treatment using 200 μL/22-mm well of ice cold lysis buffer (50 mM HEPES, pH 7.5, 500 mM NaCl, 10% (v/v) glycerol, 1% (v/v) Triton-X 100, 1.5 mM MgCl2, 1 mM EGTA) (McDougal et al., 2001). Lysates were centrifuged at 40,000 g, and supernatant was collected as extract. Whole cell extracts (50 μg/sample) were separated by electrophoresis on a tiered 7.5% (top)/12.5% (bottom) SDS-polyacrylamide gel and transferred to PVDF membrane (Bio-Rad, Richmond, Calif.). The membrane was blocked with 5% milk (m/v) in tris-buffered saline 0.05% Tween (TBST). Membranes were incubated with primary antibodies for AR (sc-7305), cyclin D1 (sc-718), or p27 (sc-528) (each from Santa Cruz Biotechnology, Santa Cruz, Calif.) at 1:1000 in 5% milk/TBST for 3 h. Membranes were washed twice in TBST. Horseradish peroxidase (HRP)-conjugated secondary antibodies were applied at 1:5000 in 5% milk/TBST for 1 h. After two TBST washes, PVDF-bounded antibodies were detected using a chemiluminescence kit (Western Lightning, PerkinElmer), ImageTek-H film (American X-Ray and Medical Supply, Rancho Cordova, Calif.) and an autoprocessor (Hope Macro-Med, Warminster, Pa.). Quantitation of the Western blot was performed using a Sharp JX-330 scanner (Sharp, Mahwah, N.J.) and Zero-D software (Scanalytics, Billerica, Mass.).

LNCaP cells = format: cell-based, human; conditions: six days; for growth of LNCaP cells in the presence of DHT: 10 nM DHT; for proliferation of LNCaP cells: absence of DHT, TCDD 1-100 nM
Procedure: After trypsinization and low-speed centrifugation, LNCaP cells were resuspended and counted using a Coulter cell counter (Beckman Coulter, Fullerton, Calif.). Cells were seeded at a density of 5×10^4/35-mm well using DME-F12 without phenol red, supplemented with 2.5% charcoal-stripped fetal bovine serum (FBS). Twenty-four hours after seeding, initial treatment was applied and then subsequently reapplied with fresh medium every two days until harvesting by trypsinization. Cells were counted after harvesting using a Coulter counter.

[3] = system: ethoxyresorufin O-deethylase (EROD) activity in PC3 cells; experiment: Induction of EROD activity in PC3 cells; format: cell-based; conditions: 24-96 hr
Procedure: An androgen responsive prostate cancer cell line 22Rv1 and an androgen nonresponsive prostate cancer cell line PC3 were treated with TCDD and ethoxyresorufin O-deethylase (EROD) activity was measured.

[4] = system: LNCaP prostate cancer cells; format: cell-based, human; conditions: 48 h
Procedure: Cells were analyzed on a FACS Calibur (Becton Dickinson, San Jose, Calif.) flow cytometer, equipped with a 15 mW air-cooled argon laser, using CellQuest (Becton Dickinson) acquisition software. Propidium iodide (PI) fluorescence was collected through a 585/42-nm bandpass filter, and list mode data were acquired on a minimum of 12,000 single cells defined by a dot plot of PI-width versus PI-area. Data analysis was performed in ModFit LT (Verity Software House, Topsham, Me.) using PI-width versus PI-area to exclude cell aggregates.
The effects of TCDD on cell cycle progression was also determined in LNCaP cells treated with 1.0, 10 and 100 nM TCDD for 48 h followed by FACS analysis (Table 1).

Row | Structure (SMILES) | effect on DHT-induced luciferase activity (AR [1]) | effect on E2-induced luciferase activity (AR [1]) | AR levels in combination with DHT compared to DHT alone (AR [2]) | AR protein levels, compound alone (AR [2]) | growth of LNCaP cells in the presence of DHT (LNCaP cells) | proliferation of LNCaP cells (LNCaP cells) | EROD activity induction ([3]; 1 nM) | EROD activity induction ([3]; 10 nM, maximal after 96 hr) | AR levels in combination with E2 compared to E2 alone (AR [2]) | cells in S phase ([4]; 1.0, 10 and 100 nM) | percentage of cells in G0/G1 ([4]; 1.0, 10 and 100 nM) | Percent Distribution G0/G1 ([4]; 10^−7 M) | Percent Distribution G2/M ([4]; 10^−7 M) | Percent Distribution S ([4]; 10^−7 M) | Percent Distribution G0/G1 ([4]; 10^−8 M) | Percent Distribution G2/M ([4]; 10^−8 M) | Percent Distribution S ([4]; 10^−8 M) | Percent Distribution G0/G1 ([4]; 10^−9 M) | Percent Distribution G2/M ([4]; 10^−9 M) | Percent Distribution S ([4]; 10^−9 M)
1 | Cc1cc(Cl)cc2c1oc1cc(Cl)cc(Cl)c12 [6-MCDF, 6-methyl-1,3,8-trichlorodibenzofuran] | did not decrease | not a significant decrease | significant decrease | did not significantly affect | inhibited growth | growth inhibition was also observed | – | – | – | – | – | – | – | – | – | – | – | – | – | –
2 | Clc1cc2c(cc1Cl)Oc1cc(Cl)c(Cl)cc1O2 [TCDD, 2,3,7,8-tetrachloro-p-dioxin] | did not decrease | not a significant decrease | significant decrease | did not significantly affect | inhibited growth | significantly inhibited | did not induce activity | induced a response | decreased | decrease | small but significant increase | 77.500 ± 0.451% | 8.943 ± 0.471% | 13.567 ± 0.176% | 75.367 ± 0.636% | 10.300 ± 0.153% | 14.3 ± 0.666% | 74.300 ± 0.751% | 10.633 ± 0.376% | 14.7 ± 0.520%
